Among the data in patent publication US20100286173A1 (priority 2008, published 2010) are logp, chromatographic logP and Log p values, retold here.

Each structure is given as a SMILES string. Read-outs that look alike come from different tables or passages of the source.

The series in a line: Measurement of logP values by HPLC on reversed phase columns (EEC directive 79/831 Annex V.A8). The class given is physicochemical. Particulars: pH 2.7, 0.1% formic acid in water / acetonitrile gradient 10% to 95%; for chromatographic logP: reversed phase HPLC column.

`CCCCCOC(=O)Nc1cccc(CON=C(c2cccc(C(F)(F)F)c2Cl)c2nnnn2C)n1` [Example 87] had a logp of 4.81. For `CCCCCOC(=O)Nc1cccc(CON=C(c2ccc(Cl)c(C(F)(F)F)c2)c2nnnn2C)n1` [Example 88], the logp is listed as 5.14.

The molecule `CCCCCC(=O)Nc1cccc(CON=C(c2ccc(C)c(C(F)(F)F)c2)c2nnnn2C)n1` [Example 89] registered a logp of 4.56.

With `CCCCC(=O)Nc1ccnc(CON=C(c2ccc(C)c(C(F)(F)F)c2)c2nnnn2C)n1` [Example 90], the logp turned out to be 3.94.

For `CCCCCOC(=O)Nc1cccc(CON=C(c2ccc(C)cc2Cl)c2nnnn2C)n1` [Example 91], the logp is reported as 4.7. The molecule `CCCCCOC(=O)Nc1cccc(CON=C(c2ccc(C)cc2Cl)c2nnnn2C)n1` [Example 92] came in with a logp of 4.54.

Molecule `CCCCCC(=O)Nc1cccc(CON=C(c2cc(C)ccc2F)c2nnnn2C)n1` [Example 100] came in with a logp of 3.92. On the same count and under the same terms, the figure for `CC#CCOC(=O)Nc1cccc(CON=C(c2ccc(F)c(C)c2)c2nnnn2C)n1` [Example 101] is 3.67; for `CCCCCC(=O)Nc1cccc(CON=C(c2cccc(C)c2F)c2nnnn2C)n1` [Example 103] it is 3.96. Still for that read-out and setting: the figure for `CCCCCC(=O)Nc1cccc(CON=C(c2ccc(F)c(C(F)(F)F)c2)c2nnnn2C)n1` [Example 104] is 4.36.

Turning to `CCCCCC(=O)Nc1cccc(CON=C(c2cc(C(F)(F)F)ccc2Cl)c2nnnn2C)n1` [Example 106], the logp is on record as 4.39. On the same count and under the same terms, the figure for `CCCCCC(=O)Nc1cccc(CON=C(c2ccc(C(F)(F)F)c(Cl)c2)c2nnnn2C)n1` [Example 107] is 4.7; for `CCCCCC(=O)Nc1cccc(CON=C(c2cc(C(F)(F)F)ccc2C)c2nnnn2C)n1` [Example 111] it is 4.34. The molecule `CCCCCC(=O)Nc1cccc(CON=C(c2cccc(F)c2C)c2nnnn2C)n1` [Example 112] displayed a logp of 3.96. Take `CCCCCC(=O)Nc1cccc(CON=C(c2ccc(C)cc2F)c2nnnn2C)n1` [Example 115]: the logp was 3.92. `CCCCCC(=O)Nc1cccc(CON=C(c2ccc(C)c(C(F)(F)F)c2)c2nnnn2C)n1` [Example 118] showed a logp of 4.56.

For the molecule `CCCCCC(=O)Nc1cccc(CON=C(c2ccc(F)c(C)c2)c2nnnn2C)n1` [Example 119], the logp is 4.11. The same measure, in the same setting: the figure for `CCCCCOC(=O)Nc1cccc(CON=C(c2cc(C)ccc2F)c2nnnn2C)n1` [Example 121] is 4.19; for `CCCCCOC(=O)Nc1ccnc(CON=C(c2ccc(C)c(C(F)(F)F)c2)c2nnnn2C)n1` [Example 122] it is 4.59. For the molecule `CCCCCC(=O)Nc1cccc(CON=C(c2cc(C)cc(F)c2)c2nnnn2C)n1` [Example 123], the logp worked out at 4.14. Same read-out and setting: the figure for `Cc1ccc(C(F)(F)F)cc1C(=NOCc1cccc(N)n1)c1nnnn1C` [Example 124] is 1.73; for `Cc1cc(C)cc(C(=NOCc2cccc(N)n2)c2nnnn2C)c1` [Example 125] it is 1.81; for `Cn1nnnc1C(=NOCc1cccc(N)n1)c1cc(F)cc(C(F)(F)F)c1` [Example 127] it is 1.75. The molecule `Cc1ccc(C(=NOCc2nccc(N)n2)c2nnnn2C)cc1C(F)(F)F` [Example 128, 2-{[({(1-methyl-1H-tetrazol-5-yl)[4-methyl-3-(trifluoromethyl)phenyl]methylidene}amino)oxy]methyl}pyrimidin-4-amine] gave a chromatographic logP of 1.7. For the molecule `Cc1nc(N)cc(CON=C(c2ccc(F)c(Oc3ccccc3)c2)c2nnnn2C)n1` [Example 129], the logp was determined as 1.75.

Take `Cc1ccc(C(F)(F)F)cc1C(=NOCc1csc(N)n1)c1nnnn1C` [Example 130]: the logp was determined as 1.92. In the case of `Cn1nnnc1C(=NOCc1csc(N)n1)c1cc(F)cc(C(F)(F)F)c1` [Example 131], the logp amounted to 2.14. On the same count and under the same terms, for `Cc1ccc(F)c(C(=NOCc2csc(N)n2)c2nnnn2C)c1` [Example 132] the value was 1.65. Take `Cn1nnnc1C(=NOCc1cccc(N)n1)c1cc(C(F)(F)F)ccc1Cl` [Example 133]: the Log p is 1.72.

In the case of `Cn1nnnc1C(=NOCc1cccc(N)n1)c1ccc(C(F)(F)F)c(Cl)c1` [Example 134], the Log p came out at 1.9. The same measure, in the same setting: for `Cc1cc(F)cc(C(=NOCc2cccc(N)n2)c2nnnn2C)c1` [Example 135] the value was 1.46; for `Cc1ccc(F)c(C(=NOCc2cccc(N)n2)c2nnnn2C)c1` [Example 136], 1.4; for `Cc1ccc(C(=NOCc2cccc(N)n2)c2nnnn2C)cc1F` [Example 137], 1.52. `Cc1cccc(C(=NOCc2cccc(N)n2)c2nnnn2C)c1F` [Example 138] returned a Log p of 1.42. The same measure, in the same setting: the figure for `Cc1nc(N)cc(CON=C(c2ccc(F)c(Oc3ccccc3)c2)c2nnn(C)n2)n1` [Example 139] is 1.73. The same measure, in the same setting: for `Cn1nnc(C(=NOCc2csc(N)n2)c2ccc(F)c(Oc3ccccc3)c2)n1` [Example 140] the value was 2.23.

In the case of `Cn1nnnc1C(=NOCc1cccc(N)n1)c1cccc(C(F)(F)F)c1F` [Example 143, 6-{[({[2-fluoro-3-(trifluoromethyl)phenyl](1-methyl-1H-tetrazol-5-yl)methylidene}amino)oxy]methyl}pyridin-2-amine], the chromatographic logP (read-out: Log p) turned out to be 1.75. Still for that read-out and setting: for `Cc1ccc(C(=NOCc2csc(N)n2)c2nnnn2C)cc1C(F)(F)F` [Example 145, 4-{[({(1-methyl-1H-tetrazol-5-yl)[4-methyl-3-(trifluoromethyl)phenyl]methylidene}amino)oxy]methyl}-1,3-thiazol-2-amine] the value was 2.22. Molecule `CCCC(=O)Nc1nc(CON=C(c2ccc(F)c(Oc3ccccc3)c2)c2nnnn2C)cs1` [Example 146] yielded a Log p of 3.35. Still for that read-out and setting: the figure for `Cn1nnnc1C(=NOCc1csc(NC(=O)C(C)(C)C)n1)c1ccc(F)c(Oc2ccccc2)c1` [Example 147] is 4.05. Regarding `Cn1nnnc1C(=NOCc1csc(NC(=O)C2CC2)n1)c1ccc(F)c(Oc2ccccc2)c1` [Example 148], the Log p came to 3.48.

Molecule `Cn1nnnc1C(=NOCc1csc(N)n1)c1ccc(F)c(Oc2ccccc2)c1` [Example 149] displayed a Log p of 2.25. Take `Cc1cc(C(=NOCc2csc(NC(=O)OC(C)(C)C)n2)c2nnnn2C)ccc1F` [Example 150, tert-butyl {4-[({[(4-fluoro-3-methylphenyl)(1-methyl-1H-tetrazol-5-yl)methylidene]amino}oxy)methyl]-1,3-thiazol-2-yl}carbamate]: the chromatographic logP (read-out: Log p) was found to be 3.89.

For the molecule `Cc1cc(C(=NOCc2csc(NCCC3CCCCC3)n2)c2nnnn2C)ccc1F` [Example 151], the Log p is 4.36. For the molecule `CCCCC#Cc1nc(CON=C(c2ccc(F)c(C)c2)c2nnnn2C)cs1` [Example 152], the Log p is given as 4.78. For `CCCC#Cc1nc(CON=C(c2ccc(F)c(C)c2)c2nnnn2C)cs1` [Example 153, 1-(4-fluoro-3-methylphenyl)-1-(1-methyl-1H-tetrazol-5-yl)-N-{[2-(pent-1-yn-1-yl)-1,3-thiazol-4-yl]methoxy}methanimine], the chromatographic logP (read-out: Log p) came to 4.36.
